Test results reported in ChEMBL document CHEMBL1124008, “Synthesis and antifolate activity of 5-methyl-5,10-dideaza analogues of aminopterin and folic acid and an alternative synthesis of 5,10-dideazatetrahydrofolic acid, a potent inhibitor of glycinamide ribonucleotide formyltransferase” (J Med Chem, 1988).

What was measured:
L1210 [1] = assay: Influx characteristics toward L1210 cells was evaluated; assay type: functional, cell-based; conditions: Mus musculus
Thymidylate synthase = biological target: T1, Thymidylate synthase (Lactobacillus casei, UniProt P00469); assay: Evaluated for inhibition of thymidylate synthase (TS) from Lactobacillus casei; design: species or system Lacticaseibacillus casei
T1 sequence (P00469 whole entry): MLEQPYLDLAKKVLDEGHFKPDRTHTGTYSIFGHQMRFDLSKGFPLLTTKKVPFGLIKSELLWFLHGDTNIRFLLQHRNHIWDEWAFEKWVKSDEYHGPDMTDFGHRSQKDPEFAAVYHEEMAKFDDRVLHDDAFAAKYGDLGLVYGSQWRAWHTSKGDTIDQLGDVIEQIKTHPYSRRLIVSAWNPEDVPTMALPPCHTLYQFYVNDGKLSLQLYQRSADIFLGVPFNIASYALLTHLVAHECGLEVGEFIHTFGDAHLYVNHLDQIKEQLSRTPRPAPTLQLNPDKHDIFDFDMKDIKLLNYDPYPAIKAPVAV

[2] = biological target: T2, Trifunctional purine biosynthetic protein adenosine-3 (Mus musculus, UniProt Q64737); assay: Inhibition of GAR transformylase from mammalian L1210 cells; assay type: cell-based
T2 sequence (Q64737 whole entry): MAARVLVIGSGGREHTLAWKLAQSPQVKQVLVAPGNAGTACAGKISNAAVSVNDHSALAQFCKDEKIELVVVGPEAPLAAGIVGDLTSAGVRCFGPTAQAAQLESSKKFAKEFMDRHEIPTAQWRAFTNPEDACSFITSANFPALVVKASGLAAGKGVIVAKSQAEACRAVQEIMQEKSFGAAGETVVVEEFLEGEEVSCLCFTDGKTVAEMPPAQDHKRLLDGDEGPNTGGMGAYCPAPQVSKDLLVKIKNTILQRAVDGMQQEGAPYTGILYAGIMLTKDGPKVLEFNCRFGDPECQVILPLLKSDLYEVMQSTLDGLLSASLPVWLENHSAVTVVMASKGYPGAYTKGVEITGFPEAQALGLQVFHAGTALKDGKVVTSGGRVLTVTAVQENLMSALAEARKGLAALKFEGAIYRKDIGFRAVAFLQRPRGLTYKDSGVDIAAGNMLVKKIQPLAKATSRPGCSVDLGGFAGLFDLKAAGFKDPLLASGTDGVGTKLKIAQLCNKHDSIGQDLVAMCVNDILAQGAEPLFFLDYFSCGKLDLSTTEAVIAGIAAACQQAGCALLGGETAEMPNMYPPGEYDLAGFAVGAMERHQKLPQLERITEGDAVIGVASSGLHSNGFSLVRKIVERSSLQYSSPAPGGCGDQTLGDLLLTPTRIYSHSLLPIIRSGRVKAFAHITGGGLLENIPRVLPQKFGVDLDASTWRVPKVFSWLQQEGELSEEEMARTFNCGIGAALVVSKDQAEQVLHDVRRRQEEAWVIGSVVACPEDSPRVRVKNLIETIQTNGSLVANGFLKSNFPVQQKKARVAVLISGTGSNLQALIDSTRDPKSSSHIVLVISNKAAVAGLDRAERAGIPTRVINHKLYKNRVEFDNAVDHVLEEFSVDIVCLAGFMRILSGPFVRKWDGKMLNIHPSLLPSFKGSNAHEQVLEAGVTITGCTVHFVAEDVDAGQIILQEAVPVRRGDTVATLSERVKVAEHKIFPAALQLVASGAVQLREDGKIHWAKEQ

L1210 [3] = assay: Evaluated for cell growth inhibition of L1210 cells in cultures; assay type: functional, cell-based; conditions: Mus musculus
[4] = biological target: Trifunctional purine biosynthetic protein adenosine-3 (Homo sapiens) (UniProt P22102); assay: Inhibition of GAR transformylase from mammalian Manca
Trifunctional purine biosynthetic protein adenosine-3 (Homo sapiens), sequence (P22102 whole entry, looked up): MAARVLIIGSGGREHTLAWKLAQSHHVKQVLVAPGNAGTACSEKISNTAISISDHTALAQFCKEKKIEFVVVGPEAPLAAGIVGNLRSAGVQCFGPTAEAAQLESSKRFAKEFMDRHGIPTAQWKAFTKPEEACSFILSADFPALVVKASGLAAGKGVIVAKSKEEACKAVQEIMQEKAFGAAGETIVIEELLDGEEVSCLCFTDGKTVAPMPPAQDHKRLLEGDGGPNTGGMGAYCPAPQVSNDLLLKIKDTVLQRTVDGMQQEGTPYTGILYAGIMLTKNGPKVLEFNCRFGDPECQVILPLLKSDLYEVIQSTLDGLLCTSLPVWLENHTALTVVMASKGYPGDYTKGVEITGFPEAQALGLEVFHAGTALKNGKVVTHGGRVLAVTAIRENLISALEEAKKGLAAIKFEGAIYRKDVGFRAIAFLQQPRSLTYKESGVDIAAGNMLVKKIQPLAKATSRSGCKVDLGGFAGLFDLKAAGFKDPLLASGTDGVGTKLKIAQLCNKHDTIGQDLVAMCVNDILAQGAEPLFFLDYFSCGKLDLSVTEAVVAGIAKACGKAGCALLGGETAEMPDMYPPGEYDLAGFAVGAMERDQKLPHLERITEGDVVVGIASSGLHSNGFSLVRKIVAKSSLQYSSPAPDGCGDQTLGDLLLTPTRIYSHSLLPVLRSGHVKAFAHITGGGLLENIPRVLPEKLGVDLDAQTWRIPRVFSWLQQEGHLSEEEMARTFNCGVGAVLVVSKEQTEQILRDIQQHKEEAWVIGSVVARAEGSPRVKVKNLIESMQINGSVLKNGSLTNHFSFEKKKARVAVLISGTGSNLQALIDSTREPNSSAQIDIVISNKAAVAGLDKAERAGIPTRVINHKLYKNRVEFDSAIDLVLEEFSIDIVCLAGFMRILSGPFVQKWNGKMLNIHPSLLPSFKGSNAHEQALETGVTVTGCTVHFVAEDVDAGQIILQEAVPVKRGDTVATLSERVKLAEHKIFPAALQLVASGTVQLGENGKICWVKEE

Dihydrofolate reductase [5] = biological target: T3, Dihydrofolate reductase (Mus musculus, UniProt P00375); assay: Evaluated for inhibition of dihydrofolate reductase (DHFR) isolated from L1210 cells; assay type: cell-based
T3 sequence (P00375 whole entry): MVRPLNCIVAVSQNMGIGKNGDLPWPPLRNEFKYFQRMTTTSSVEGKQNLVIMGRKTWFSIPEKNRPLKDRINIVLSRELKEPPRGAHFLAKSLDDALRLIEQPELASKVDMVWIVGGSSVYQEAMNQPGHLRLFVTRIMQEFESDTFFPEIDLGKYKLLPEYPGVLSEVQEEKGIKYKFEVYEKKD

Dihydrofolate reductase [6] = biological target: Dihydrofolate reductase (Lactobacillus casei, UniProt P00381); assay: Evaluated for inhibition of dihydrofolate reductase (DHFR) from Lactobacillus casei; design: species or system Lacticaseibacillus casei
Dihydrofolate reductase (Lactobacillus casei, UniProt P00381), sequence (P00381 whole entry): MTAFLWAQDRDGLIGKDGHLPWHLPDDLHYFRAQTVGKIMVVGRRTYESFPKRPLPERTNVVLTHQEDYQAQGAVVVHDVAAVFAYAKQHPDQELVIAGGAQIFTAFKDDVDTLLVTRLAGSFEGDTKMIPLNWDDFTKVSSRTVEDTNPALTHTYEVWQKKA

L1210 [7] = assay: Efflux characteristics in the L1210 cells was evaluated; assay type: functional, Mus musculus

IC50 (L1210 [3]) [nM]	Compound	Km (L1210 [1]) [µM]	IC50 (Thymidylate synthase) [nM]	IC50 [2] [nM]	IC50 [4] [nM]	Ki (Dihydrofolate reductase [5]) [nM]	IC50 (Dihydrofolate reductase [6]) [nM]	k (L1210 [7]) [min⁻¹]
23.2	Cc1c(CCc2ccc(C(=O)NC(CCC(=O)O)C(=O)O)cc2)cnc2nc(N)nc(N)c12 (stereo not given)	1.25	2900	–	–	0.0283	23	0.5
36400	Cc1c(CCc2ccc(C(=O)NC(CCC(=O)O)C(=O)O)cc2)cnc2nc(N)nc(O)c12 (stereo not given)	18.8	–	–	–	–	–	–

The next lines start with the compound.

Compound	IC50 (L1210 [3]) [nM]	Km (L1210 [1]) [µM]	IC50 (Thymidylate synthase) [nM]	IC50 [2] [nM]	IC50 [4] [nM]	Ki (Dihydrofolate reductase [5]) [nM]	IC50 (Dihydrofolate reductase [6]) [nM]	k (L1210 [7]) [min⁻¹]
CCC1c2c(O)nc(N)nc2NCC1CCc1ccc(C(=O)NC(CCC(=O)O)C(=O)O)cc1 (racemic)	57.2	2.48	> 100000	500	500	> 1	19000	–
CC1c2c(O)nc(N)nc2NCC1CCc1ccc(C(=O)NC(CCC(=O)O)C(=O)O)cc1 (racemic)	490	1.62	> 100000	80000	14000	> 1	> 100000	–
Cc1c(CCc2ccc(C(=O)NC(CCC(=O)O)C(=O)O)cc2)cnc2nc(N)[nH]c(=O)c12 (stereo not given)	–	–	44000	> 20000	> 20000	> 1	16000	–
CN(Cc1cnc2nc(N)nc(N)c2n1)c1ccc(C(=O)N[C@@H](CCC(=O)O)C(=O)O)cc1 [METHOTREXATE]	2.1	3.95	–	–	–	–	–	0.22
